pKi: −log10 of the molar value.
Biological target: human plasma kallikrein (Homo sapiens (Human), UniProt P03952)
Assay: Plasma Kallikrein Activity Assay (chromogenic substrate S2302)
Assay type: biochemical
Details: 2 nM kallikrein, 80 μM S2302, 30° C., pH 7.8; Cheng-Prusoff
Outline: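 2 nM human plasma kallikrein incubated at 30° C with 80 μM S2302 and increasing compound concentrations in 50 mM Tris-HCl pH 7.8, 200 mM NaCl, 2.5 mM CaCl2. Activity read as absorbance change at 405 nm; four-parameter logistic fit, Ki by Cheng-Prusoff.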

Sequence of human plasma kallikrein (P03952 391-638): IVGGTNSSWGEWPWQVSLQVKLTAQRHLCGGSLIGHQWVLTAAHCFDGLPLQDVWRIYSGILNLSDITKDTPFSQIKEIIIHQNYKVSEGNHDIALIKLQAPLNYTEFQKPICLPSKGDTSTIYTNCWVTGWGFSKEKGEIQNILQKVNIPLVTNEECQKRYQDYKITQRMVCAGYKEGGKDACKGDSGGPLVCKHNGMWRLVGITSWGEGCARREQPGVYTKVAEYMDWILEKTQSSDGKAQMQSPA
Sequence of human plasma kallikrein (P03952 20-390 partner): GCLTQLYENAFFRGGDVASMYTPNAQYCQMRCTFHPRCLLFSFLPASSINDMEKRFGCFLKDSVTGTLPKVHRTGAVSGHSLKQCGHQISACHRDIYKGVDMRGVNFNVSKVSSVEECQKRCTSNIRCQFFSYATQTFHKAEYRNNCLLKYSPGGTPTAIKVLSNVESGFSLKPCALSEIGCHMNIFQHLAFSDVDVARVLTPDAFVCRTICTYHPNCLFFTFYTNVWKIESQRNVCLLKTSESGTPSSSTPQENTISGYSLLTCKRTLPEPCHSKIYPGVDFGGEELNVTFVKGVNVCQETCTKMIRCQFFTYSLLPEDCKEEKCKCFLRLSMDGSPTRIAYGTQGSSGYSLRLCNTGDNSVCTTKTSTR

## C[C@H]1C[C@H](C(=O)Nc2cc(C(N)(CCC3CC3)c3ccncc3)ccc2F)N(C(=O)Nc2ccc(Cl)cn2)C1 (stereo partly drawn) [Compound 48d, (2R,4S)-N2-(5-((+)-1-amino-3-cyclopropyl-1-(pyridin-4-yl)propyl)-2-fluorophenyl)-N1-(5-chloropyridin-2-yl)-4-methylpyrrolidine-1,2-dicarboxamide]
  pKi: > 7.30

## C[C@@H]1C[C@H](C(=O)Nc2cc(C(N)(CCC3CC3)c3ccncc3)ccc2F)N(C(=O)Nc2ccc(Cl)cn2)C1 (stereo partly drawn) [Compound 49d, (2R,4R)-N2-(5-((+)-1-amino-3-cyclopropyl-1-(pyridin-4-yl)propyl)-2-fluorophenyl)-N1-(5-chloropyridin-2-yl)-4-methylpyrrolidine-1,2-dicarboxamide]
  pKi: 7.00 to 7.30

## CCO[C@@H]1C[C@H](C(=O)Nc2cc(C(N)(CCC3CC3)c3ccncc3)ccc2F)N(C(=O)Nc2ccc(Cl)cn2)C1 (stereo partly drawn) [Compound 51b, (2R,4R)-N2-(5-((+)-1-amino-3-cyclopropyl-1-(pyridin-4-yl)propyl)-2-fluorophenyl)-N1-(5-chloropyridin-2-yl)-4-ethoxypyrrolidine-1,2-dicarboxamide]
  pKi: > 7.30

## CCCO[C@@H]1C[C@H](C(=O)Nc2cc(C(N)(CCC3CC3)c3ccncc3)ccc2F)N(C(=O)Nc2ccc(Cl)cn2)C1 (stereo partly drawn) [Compound 52d, (2R,4R)-N2-(5-((+)-1-amino-3-cyclopropyl-1-(pyridin-4-yl)propyl)-2-fluorophenyl)-N1-(5-chloropyridin-2-yl)-4-propoxypyrrolidine-1,2-dicarboxamide]
  pKi: > 7.30

## NC(CCC1CC1)(c1ccncc1)c1ccc(F)c(NC(=O)[C@H]2CC(F)(F)CN2C(=O)Nc2ccc(Cl)cn2)c1 (stereo partly drawn) [Compound 53d, (R)-N2-(5-((+)-1-amino-3-cyclopropyl-1-(pyridin-4-yl)propyl)-2-fluorophenyl)-N1-(5-chloropyridin-2-yl)-4,4-difluoropyrrolidine-1,2-dicarboxamide]
  pKi: > 7.30

## NC(CCC1CC1)(c1ccncc1)c1ccc(F)c(NC(=O)[C@H]2C[C@](O)(C(F)(F)F)CN2C(=O)Nc2ccc(Cl)cn2)c1 (stereo partly drawn) [Compound 54g, (2R,4R)-N2-(5-(1-amino-3-cyclopropyl-1-(pyridin-4-yl)propyl)-2-fluorophenyl)-N1-(5-chloropyridin-2-yl)-4-hydroxy-4-(trifluoromethyl)pyrrolidine-1,2-dicarboxamide]
  pKi: > 7.30

## CCO[C@@H]1C[C@H](C(=O)Nc2cc(C(CCC3CC3)(NS(C)(=O)=O)c3ccncc3)ccc2F)N(C(=O)Nc2ccc(Cl)cn2)C1 (stereo partly drawn) [Compound 55a, (2R,4R)-N1-(5-chloropyridin-2-yl)-N2-(5-((+)-3-cyclopropyl-1-(methylsulfonamido)-1-(pyridin-4-yl)propyl)-2-fluorophenyl)-4-ethoxypyrrolidine-1,2-dicarboxamide]
  pKi: > 7.30

## CCO[C@@H]1C[C@H](C(=O)Nc2cc(C(CCC3CC3)(NC(C)=O)c3ccncc3)ccc2F)N(C(=O)Nc2ccc(Cl)cn2)C1 (stereo partly drawn) [Compound 56a, (2R,4R)-N2-(5-((+)-1-acetamido-3-cyclopropyl-1-(pyridin-4-yl)propyl)-2-fluorophenyl)-N1-(5-chloropyridin-2-yl)-4-ethoxypyrrolidine-1,2-dicarboxamide]
  pKi: > 7.30

## CO[C@]1(C(F)(F)F)C[C@H](C(=O)Nc2cc(C(N)(CCC3CC3)c3ccncc3)ccc2F)N(C(=O)Nc2ccc(Cl)cn2)C1 (stereo partly drawn) [Compound 57d, (2R,4R)-N2-(5-((+)-1-amino-3-cyclopropyl-1-(pyridin-4-yl)propyl)-2-fluorophenyl)-N1-(5-chloropyridin-2-yl)-4-methoxy-4-(trifluoromethyl)pyrrolidine-1,2-dicarboxamide]
  pKi: > 7.30

## CCO[C@@H]1C[C@H](C(=O)Nc2cc(C(NCC3CC3)c3cccc(C#N)c3)ccc2F)N(C(=O)Nc2ccc(Cl)cn2)C1 (stereo partly drawn) [Compound 58j, (2R,4R)-N1-(5-chloropyridin-2-yl)-N2-(5-((+)-(3-cyanophenyl)(cyclopropylmethylamino)methyl)-2-fluorophenyl)-4-ethoxypyrrolidine-1,2-dicarboxamide]
  pKi: > 7.30

## NC(CCC1CC1)(c1ccncc1)c1ccc(F)c(NC(=O)[C@H]2C[C@](O)(C3CC3)CN2C(=O)Nc2ccc(Cl)cn2)c1 (stereo partly drawn) [Compound 59d, (2R,4S)-N2-(5-((+)-1-amino-3-cyclopropyl-1-(pyridin-4-yl)propyl)-2-fluorophenyl)-N1-(5-chloropyridin-2-yl)-4-cyclopropyl-4-hydroxypyrrolidine-1,2-dicarboxamide]
  pKi: > 7.30

## N#Cc1cccc([C@@H](NCC2CC2)c2ccc(F)c(NC(=O)[C@H]3C[C@@H](O)CN3C(=O)Nc3ccc(Cl)cc3)c2)c1 [Compound 60a, (2R,4R)-N1-(4-chlorophenyl)-N2-(5-((R)-(3-cyanophenyl)(cyclopropylmethylamino)methyl)-2-fluorophenyl)-4-hydroxypyrrolidine-1,2-dicarboxamide]
  pKi: < 7.00

## NC(CCC1CC1)(c1ccc(F)c(NC(=O)[C@H]2C[C@@H](O)CN2C(=O)Nc2ccc(Cl)cn2)c1)c1ccccn1 (stereo partly drawn) [Compound 62c, (2R,4R)-N2-(5-((+)-1-amino-3-cyclopropyl-1-(pyridin-2-yl)propyl)-2-fluorophenyl)-N1-(5-chloropyridin-2-yl)-4-hydroxypyrrolidine-1,2-dicarboxamide]
  pKi: > 7.30

## N#Cc1ccc(C(N)(CCC2CC2)c2ccc(F)c(NC(=O)[C@H]3C[C@@H](O)CN3C(=O)Nc3ccc(Cl)cc3)c2)cc1 (stereo partly drawn) [Compound 63g, (2R,4R)-N2-(5-((+)-1-amino-1-(4-cyanophenyl)-3-cyclopropylpropyl)-2-fluorophenyl)-N1-(4-chlorophenyl)-4-hydroxypyrrolidine-1,2-dicarboxamide]
  pKi: 7.00 to 7.30

## NC(CCC1CC1)(c1cccnc1)c1ccc(F)c(NC(=O)[C@H]2C[C@@H](O)CN2C(=O)Nc2ccc(Cl)cc2)c1 (stereo partly drawn) [Compound 64g, (2R,4R)-N2-(5-((+)-1-amino-3-cyclopropyl-1-(pyridin-3-yl)propyl)-2-fluorophenyl)-N1-(4-chlorophenyl)-4-hydroxypyrrolidine-1,2-dicarboxamide]
  pKi: > 7.30

## CO[C@@H]1C[C@H](C(=O)Nc2cc(C(N)(CCC3CC3)c3ccccn3)ccc2F)N(C(=O)Nc2ccc(Cl)cc2)C1 (stereo partly drawn) [Compound 65b, (2R,4R)-N2-(5-((+)-1-amino-3-cyclopropyl-1-(pyridin-2-yl)propyl)-2-fluorophenyl)-N1-(4-chlorophenyl)-4-methoxypyrrolidine-1,2-dicarboxamide]
  pKi: > 7.30

## CO[C@@H]1C[C@H](C(=O)Nc2cc(C(CCC3CC3)(N[S@+]([O-])C(C)(C)C)c3ccccc3)ccc2F)N(C(=O)Nc2ccc(Cl)cn2)C1 (stereo partly drawn) [Compound 66c, (2R,4R)-N1-(5-chloropyridin-2-yl)-N2-(5-((+)-3-cyclopropyl-1-((R)-1,1-dimethylethylsulfinamido)-1-phenylpropyl)-2-fluorophenyl)-4-methoxypyrrolidine-1,2-dicarboxamide]
  pKi: < 7.00

## CCNC(CCC1CC1)(c1ccccc1)c1ccc(F)c(NC(=O)[C@H]2C[C@@H](OC)CN2C(=O)Nc2ccc(Cl)cn2)c1 (stereo partly drawn) [Compound 67b, (2R,4R)-N1-(5-chloropyridin-2-yl)-N2-(5-((+)-3-cyclopropyl-1-(ethylamino)-1-phenylpropyl)-2-fluorophenyl)-4-methoxypyrrolidine-1,2-dicarboxamide]
  pKi: < 7.00
